{
  "source": "patent US20250205467A1",
  "about": "“SYSTEMS AND METHODS FOR THE TREATMENT OF CANCER USING ULTRASOUND” (Duke University, priority 2022, published 2025)",
  "key": {"4T1 tumors": {"test_system": "4T1 tumors", "settings": "combined with thermal ablative focused ultrasound; CD8 and CD4 T cell-dependent; cited from earlier work"}, "[1]": {"test_system": "MM3MG-ESR1mut (Y537N, Y537S, D538G)", "assay": "Response of MM3MG-ESR1mut cells to standard endocrine therapies", "assay_type": "cell-based, mouse", "settings": "data not shown", "procedure": "Using DNA deep-sequencing technology, recent studies have identified several conserved mutations to the […] of ESR1 in a significant proportion (˜30-40%) of endocrine-resistant metastatic ER+ breast cancer patients. As no established models of endocrine-resistant ER+ breast cancer existed in immunocompetent mice, an ER+ endocrine resistant breast cancer cell line model was generated that would grow in immune competent syngeneic animals. MM3MG cells were artificially transformed with wild-type or mutated human ESR1 (Y537N, Y537S, D538G).\nTherefore, the established murine breast cancer cell lines, MM3MG-ESR1mut (Y537N, Y537S, D538G), simulate patients' metastatic ER+ breast cancers, that are endocrine-resistant, having ESR1 gene mutation, and behave more aggressively."}, "[2]": {"test_system": "pre-treated locally advanced or recurrent TNBC", "assay": "Single arm, prospective clinical trial of intratumoral pIL-12 (TAVO) monotherapy (OMS-140)", "assay_type": "in vivo, human", "settings": "one patient previously unresponsive to anti-PD1; after 1 cycle of IL-12 treatment and 3 months of therapy", "procedure": "The clinical safety of the therapy was tested in a single arm, prospective clinical trial of intratumoral pIL-12 (TAVO) monotherapy (OMS-140) in pre-treated locally advanced or recurrent TNBC."}},
  "data": [
    {"compound": "Nc1ccn([C@@H]2O[C@H](CO)[C@@H](O)C2(F)F)c(=O)n1", "note": "[gemcitabine]", "values": [
      {"measurement": "tumor control and survival of mice", "setting": "4T1 tumors", "value": "enhanced tumor control and improved survival"}
    ]},
    {"compound": "CC/C(=C(\\c1ccccc1)c1ccc(OCCN(C)C)cc1)c1ccccc1", "note": "[Tamoxifen]", "values": [
      {"measurement": "sensitivity of the cells to standard endocrine therapies", "setting": "[1]", "value": "completely resistant"}
    ]},
    {"compound": "nivolumab", "values": [
      {"measurement": "clinical response of lung metastases", "setting": "[2]", "value": "profound clinical response"}
    ]}
  ]
}
